# Data as given in ChEMBL document CHEMBL3217521, “Analogues of the HIV-Tat peptide containing N-modified arginines as potent inhibitors of protein arginine N-methyltransferases” (Medchemcomm, 2012).
# pKi: −log10 of the molar value. Active and inactive are the calls of the source. The calls are words filed in the database; no cut-off is given here. Starred links: 1 amine or outer side, 2 acyl side, 3 side chain; linkers in the order of their positions; H or OH if unused. Non-standard residues stand in square brackets, D forms with d. Residues, ends and D or L forms follow the SMILES beside them. X2 = N/C(=N\CC(F)(F)F)NCCC[C@H](N[*:1])C(=O)[*:2]; X3 = N/C(=N\Cc1ccccc1)NCCC[C@H](N[*:1])C(=O)[*:2]; X4 = NC(NCCC[C@H](N[*:1])C(=O)[*:2])=[N+]1CCCC1; X5 = N/C(=N\C1CC1)NCCC[C@H](N[*:1])C(=O)[*:2]; X1 = N/C(=N\O)NCCC[C@H](N[*:1])C(=O)[*:2]
# Experiments:
# [1] = biological target: T1, Protein arginine N-methyltransferase 1 (Homo sapiens, UniProt Q99873); assay: Activity at PRMT1 (unknown origin) using [methyl-14C]AdoMet at 0.25 to 200 uM after 60 to 120 mins by tricine gel electrophoresis
# Target sequence in this assay (Q99873 whole entry, looked up): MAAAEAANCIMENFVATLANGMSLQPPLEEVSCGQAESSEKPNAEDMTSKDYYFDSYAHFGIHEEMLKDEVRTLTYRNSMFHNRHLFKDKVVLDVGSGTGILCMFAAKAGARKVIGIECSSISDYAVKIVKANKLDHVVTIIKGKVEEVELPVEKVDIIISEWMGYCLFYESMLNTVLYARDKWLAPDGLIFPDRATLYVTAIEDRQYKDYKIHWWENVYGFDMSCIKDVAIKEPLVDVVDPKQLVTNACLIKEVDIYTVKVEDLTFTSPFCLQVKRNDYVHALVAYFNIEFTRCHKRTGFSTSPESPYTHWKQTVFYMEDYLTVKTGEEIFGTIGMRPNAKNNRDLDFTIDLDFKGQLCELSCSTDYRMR
# [2] = biological target: T1, Protein arginine N-methyltransferase 1; assay: Activity at PRMT1 (unknown origin) assessed as methylation of substituted arginines by LC-MS/MS analysis
# Target sequence in this assay (Q99873 whole entry, looked up): as above
# [3] = biological target: T1, Protein arginine N-methyltransferase 1; assay: Inhibition of PRMT1 (unknown origin) using AdoMet by Michaelis-Menten equation analysis
# Target sequence in this assay (Q99873 whole entry): as the sequence (Q99873 whole entry, looked up) above
# [4] = biological target: T2, Protein arginine N-methyltransferase 6 (Homo sapiens, UniProt Q96LA8); assay: Activity at PRMT6 (unknown origin) using [methyl-14C]AdoMet at 0.25 to 200 uM after 60 to 120 mins by tricine gel electrophoresis
# Target sequence in this assay (Q96LA8 whole entry, looked up): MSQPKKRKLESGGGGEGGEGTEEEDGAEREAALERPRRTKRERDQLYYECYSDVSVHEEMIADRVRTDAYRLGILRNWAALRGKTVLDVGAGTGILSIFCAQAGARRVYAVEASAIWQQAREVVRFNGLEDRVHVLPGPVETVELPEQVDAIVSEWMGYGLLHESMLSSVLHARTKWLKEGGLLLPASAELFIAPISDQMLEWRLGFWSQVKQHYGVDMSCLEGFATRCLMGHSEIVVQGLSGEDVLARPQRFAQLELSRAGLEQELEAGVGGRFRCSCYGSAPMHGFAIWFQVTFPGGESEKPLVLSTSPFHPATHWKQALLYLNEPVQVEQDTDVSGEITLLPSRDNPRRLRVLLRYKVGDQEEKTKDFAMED
# [5] = biological target: T2, Protein arginine N-methyltransferase 6; assay: Activity at PRMT6 (unknown origin) assessed as methylation of substituted arginines by LC-MS/MS analysis
# Target sequence in this assay (Q96LA8 whole entry, looked up): as above
# [6] = biological target: T2, Protein arginine N-methyltransferase 6; assay: Inhibition of PRMT6 (unknown origin) using AdoMet by Michaelis-Menten equation analysis
# Target sequence in this assay (Q96LA8 whole entry): as the sequence (Q96LA8 whole entry, looked up) above
# [7] = biological target: T3, Histone-arginine methyltransferase CARM1 (Homo sapiens) (UniProt Q86X55); assay: Activity at PRMT4 (unknown origin) using [methyl-14C]AdoMet at 0.25 to 200 uM after 60 to 120 mins by tricine gel electrophoresis
# T3 sequence (whole entry): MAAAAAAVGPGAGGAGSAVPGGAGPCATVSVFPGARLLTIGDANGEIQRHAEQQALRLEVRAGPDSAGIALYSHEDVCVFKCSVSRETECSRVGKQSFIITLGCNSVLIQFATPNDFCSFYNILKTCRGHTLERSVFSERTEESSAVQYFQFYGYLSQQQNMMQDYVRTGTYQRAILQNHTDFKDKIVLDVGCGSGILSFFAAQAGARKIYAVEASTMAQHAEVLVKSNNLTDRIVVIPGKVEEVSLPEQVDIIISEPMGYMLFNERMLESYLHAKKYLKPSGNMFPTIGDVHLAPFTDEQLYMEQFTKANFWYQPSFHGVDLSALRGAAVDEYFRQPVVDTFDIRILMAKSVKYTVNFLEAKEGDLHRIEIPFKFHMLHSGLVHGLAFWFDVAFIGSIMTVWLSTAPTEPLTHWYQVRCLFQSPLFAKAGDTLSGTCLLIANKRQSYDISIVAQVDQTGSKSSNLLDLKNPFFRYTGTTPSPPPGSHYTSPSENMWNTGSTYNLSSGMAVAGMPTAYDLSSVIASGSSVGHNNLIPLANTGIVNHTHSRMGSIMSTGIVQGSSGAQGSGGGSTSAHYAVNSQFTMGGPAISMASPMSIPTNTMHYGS
# Homo sapiens [8] = organism: Homo sapiens; assay: Ratio of PRMT4 (unknown origin) to PRMT6 (unknown origin)
# [9] = biological target: T3, Histone-arginine methyltransferase CARM1 (Homo sapiens); assay: Activity at PRMT4 (unknown origin) using AdoMet assessed as formation of MMA and aDMA at 0.25 to 200 uM after 60 to 120 mins by LC-MS/MS analysis
# [10] = biological target: T2, Protein arginine N-methyltransferase 6; assay: Activity at PRMT6 (unknown origin) using AdoMet assessed as formation of MMA and aDMA at 0.25 to 200 uM after 60 to 120 mins by LC-MS/MS analysis
# Target sequence in this assay (Q96LA8 whole entry, looked up): as the sequence (Q96LA8 whole entry, looked up) above
# Homo sapiens [11] = organism: Homo sapiens; assay: Ratio of PRMT4 (unknown origin) to PRMT1 (unknown origin)
# [12] = biological target: T2, Protein arginine N-methyltransferase 6; assay: Activity at PRMT6 (unknown origin) at 100 uM using => 5 uM of AdoMet
# Target sequence in this assay (Q96LA8 whole entry, looked up): as the sequence (Q96LA8 whole entry, looked up) above
# [13] = biological target: T1, Protein arginine N-methyltransferase 1; assay: Activity at PRMT1 (unknown origin) at 100 uM using => 5 uM of AdoMet
# Target sequence in this assay (Q99873 whole entry, looked up): as the sequence (Q99873 whole entry, looked up) above
# [14] = biological target: T1, Protein arginine N-methyltransferase 1; assay: Activity at PRMT1 (unknown origin) using AdoMet assessed as formation of MMA and aDMA at 0.25 to 200 uM after 60 to 120 mins by LC-MS/MS analysis
# Target sequence in this assay (Q99873 whole entry, looked up): as above
# [15] = biological target: T2, Protein arginine N-methyltransferase 6; assay: Activity at 50 to 800 nM of PRMT6 (unknown origin) assessed as increase of Km up to 200 uM relative to control
# Target sequence in this assay (Q96LA8 whole entry, looked up): as the sequence (Q96LA8 whole entry, looked up) above
# [16] = biological target: T2, Protein arginine N-methyltransferase 6; assay: Activity at 400 nM of PRMT6 (unknown origin) using histone H3 tail peptide
# Target sequence in this assay (Q96LA8 whole entry, looked up): as above
# [17] = biological target: T1, Protein arginine N-methyltransferase 1; assay: Activity at 50 to 100 nM of PRMT1 (unknown origin) up to 200 uM
# Target sequence in this assay (Q99873 whole entry, looked up): as the sequence (Q99873 whole entry, looked up) above
# [18] = biological target: T1, Protein arginine N-methyltransferase 1; assay: Activity at 50 to 800 nM of PRMT1 (unknown origin) up to 200 uM
# Target sequence in this assay (Q99873 whole entry, looked up): as above
# [19] = biological target: T1, Protein arginine N-methyltransferase 1; assay: Inhibition of 50 nM of PRMT1 (unknown origin) up to 200 uM
# [20] = biological target: T2, Protein arginine N-methyltransferase 6; assay: Activity at 50 to 100 nM of PRMT6 (unknown origin) up to 200 uM
# [21] = biological target: T2, Protein arginine N-methyltransferase 6; assay: Inhibition of 50 to 100 nM of PRMT6 (unknown origin) up to 200 uM
# [22] = biological target: T1, Protein arginine N-methyltransferase 1; assay: Activity at 800 nM of PRMT1 (unknown origin) at 100 to 200 uM
# [23] = biological target: T2, Protein arginine N-methyltransferase 6; assay: Activity at 100 to 400 nM of PRMT6 (unknown origin) assessed as increase of Vmax up to 200 uM relative to control
# [24] = biological target: T2, Protein arginine N-methyltransferase 6; assay: Activity at 50 to 800 nM of PRMT6 (unknown origin) assessed as increase of Vmax up to 200 uM relative to control
# [25] = biological target: T1, Protein arginine N-methyltransferase 1; assay: Inhibition of 50 to 800 nM of PRMT1 (unknown origin) up to 200 uM
Molecule,Activity [1],Activity [2],pKi [3],Activity [4],Activity [5],pKi [6],Activity [7],Selectivity ratio (Homo sapiens [8]),Activity [9],Activity [10],Selectivity ratio (Homo sapiens [11]),Activity [14],other results
N=C(N)NCCC[C@H](NC(=O)CN)C(=O)N[C@@H](CCCCN)C(=O)N[C@@H](CCCCN)C(=O)N[C@@H](CCCN/C(N)=N/CC(F)(F)F)C(=O)N[C@@H](CCCNC(=N)N)C(=O)N[C@@H](CCC(N)=O)C(=O)N[C@@H](CCCNC(=N)N)C(=O)N[C@@H](CCCNC(=N)N)C(=O)N[C@@H](CCCNC(=N)N)C(=O)N1CCC[C@H]1C(=O)N1CCC[C@H]1C(=O)N[C@@H](CCC(N)=O)C(=O)O (H-GRKK[X2]RQRRRPPQ-OH),Active,inactive,5.53,Active,inactive,4.36,Active,–,–,–,–,–,–
H-GRKKARQRRRPPQ-OH,Active,inactive,5.12,Active,inactive,4.44,Active,10,Active,Active,10,Active,Activity [12]: Active; Activity [13]: Active
N=C(N)NCCC[C@H](NC(=O)CN)C(=O)N[C@@H](CCCCN)C(=O)N[C@@H](CCCCN)C(=O)N[C@@H](CCCNC(=N)N)C(=O)N[C@@H](CCCNC(=N)N)C(=O)N[C@@H](CCC(N)=O)C(=O)N[C@@H](CCCNC(=N)N)C(=O)N[C@@H](CCCNC(=N)N)C(=O)N[C@@H](CCCNC(=N)N)C(=O)N1CCC[C@H]1C(=O)N1CCC[C@H]1C(=O)N[C@@H](CCC(N)=O)C(=O)O,Active,–,5.32,Active,–,4.45,Active,10,Active,Active,10,Active,fold change (FC) [15]: 87; Activity [16]: Active; Activity [17]: Active; Activity [18]: Active; inhibition [19]: inactive; Activity [20]: Active; inhibition [21]: inactive; Activity [22]: Active; Activity [23]: Active; fold change (FC) [24]: 9; inhibition [25]: inactive
N=C(N)NCCC[C@H](NC(=O)CN)C(=O)N[C@@H](CCCCN)C(=O)N[C@@H](CCCCN)C(=O)N[C@@H](CCCN/C(N)=N/O)C(=O)N[C@@H](CCCNC(=N)N)C(=O)N[C@@H](CCC(N)=O)C(=O)N[C@@H](CCCNC(=N)N)C(=O)N[C@@H](CCCNC(=N)N)C(=O)N[C@@H](CCCNC(=N)N)C(=O)N1CCC[C@H]1C(=O)N1CCC[C@H]1C(=O)N[C@@H](CCC(N)=O)C(=O)O (H-GRKK[X1]RQRRRPPQ-OH),Active,–,5.57,Active,–,4.20,Active,10,Active,Active,10,Active,–
N=C(N)NCCC[C@H](NC(=O)CN)C(=O)N[C@@H](CCCCN)C(=O)N[C@@H](CCCCN)C(=O)N[C@@H](CCCN/C(N)=N/Cc1ccccc1)C(=O)N[C@@H](CCCNC(=N)N)C(=O)N[C@@H](CCC(N)=O)C(=O)N[C@@H](CCCNC(=N)N)C(=O)N[C@@H](CCCNC(=N)N)C(=O)N[C@@H](CCCNC(=N)N)C(=O)N1CCC[C@H]1C(=O)N1CCC[C@H]1C(=O)N[C@@H](CCC(N)=O)C(=O)O (H-GRKK[X3]RQRRRPPQ-OH),Active,inactive,5.57,Active,inactive,4.70,Active,–,–,–,–,–,–
N=C(N)NCCC[C@H](NC(=O)CN)C(=O)N[C@@H](CCCCN)C(=O)N[C@@H](CCCCN)C(=O)N[C@@H](CCCNC(N)=[N+]1CCCC1)C(=O)N[C@@H](CCCNC(=N)N)C(=O)N[C@@H](CCC(N)=O)C(=O)N[C@@H](CCCNC(=N)N)C(=O)N[C@@H](CCCNC(=N)N)C(=O)N[C@@H](CCCNC(=N)N)C(=O)N1CCC[C@H]1C(=O)N1CCC[C@H]1C(=O)N[C@@H](CCC(N)=O)C(=O)O (H-GRKK[X4]RQRRRPPQ-OH),Active,inactive,5.12,Active,inactive,4.11,Active,–,–,–,–,–,–
CC/N=C(\N)NCCC[C@H](NC(=O)[C@H](CCCCN)NC(=O)[C@H](CCCCN)NC(=O)[C@H](CCCNC(=N)N)NC(=O)CN)C(=O)N[C@@H](CCCNC(=N)N)C(=O)N[C@@H](CCC(N)=O)C(=O)N[C@@H](CCCNC(=N)N)C(=O)N[C@@H](CCCNC(=N)N)C(=O)N[C@@H](CCCNC(=N)N)C(=O)N1CCC[C@H]1C(=O)N1CCC[C@H]1C(=O)N[C@@H](CCC(N)=O)C(=O)O,Active,inactive,5.37,Active,inactive,4.50,Active,10,Active,Active,10,Active,–
N=C(N)NCCC[C@H](NC(=O)CN)C(=O)N[C@@H](CCCCN)C(=O)N[C@@H](CCCCN)C(=O)N[C@@H](CCCN/C(N)=N/C1CC1)C(=O)N[C@@H](CCCNC(=N)N)C(=O)N[C@@H](CCC(N)=O)C(=O)N[C@@H](CCCNC(=N)N)C(=O)N[C@@H](CCCNC(=N)N)C(=O)N[C@@H](CCCNC(=N)N)C(=O)N1CCC[C@H]1C(=O)N1CCC[C@H]1C(=O)N[C@@H](CCC(N)=O)C(=O)O (H-GRKK[X5]RQRRRPPQ-OH),Active,–,5.54,Active,–,< 4.00,Active,–,–,–,–,–,–
